# Columns and labels:
# portal vein glucagon = assay: Decrease of portal vein glucagon levels in anesthetized rats, compared to somatostatin; type: in vivo, rat; conditions: multiples or fractions of the effect of somatostatin (= 1); urethane-anesthetized male Sprague-Dawley rats, external jugular vein, portal vein blood after 5 minutes
# Protocol: (§1) Analogs of somatostatin were compared to somatostatin in their ability to decrease the levels of portal vein glucagon and insulin in anesthetized rats. Male Sprague-Dawley rats (Charles River CD) weighing 160-200 g were anestetized with urethane (150 mg/100 g of body weight; Aldrich). Saline or peptides were administered via the external jugular vein. After 5 minutes, the portal vein was exposed, and blood was collected via syringe containing 3 mg of EDTA and placed in chilled tubes containing 100 μl of Trasylol (FBA Pharmaceuticals) for subsequent hormone analysis. Plasma levels of glucagon were determined by the method of Faloona and Unger, Methods of Hormone Radioimmunossay, Jaffe and Behrman (Eds), Academic Press, New York, Vol. II, pp. 257-527 (1976), utilizing glucagon antisera 30K obtained from R. Unger (Dallas, TX). Plasma levels of insulin were determined by a modification of the procedure of Herbert et al., J. Clin. Endocrinol. Metab., 25, 1375-1384 (1965).
# (§2) The test results for some of the compounds of this invention are recorded below with the results for somatostatin listed first and given the arbitrary value of 1. The results for the instant compounds are given as multiples or fractions of the effect of somatostatin. The first of the instant compounds listed is the compound prepared in Example 1-5. […]
# portal vein insulin = assay: Decrease of portal vein insulin levels in anesthetized rats, compared to somatostatin; type: in vivo, rat; conditions: multiples or fractions of the effect of somatostatin (= 1); urethane-anesthetized male Sprague-Dawley rats, external jugular vein, portal vein blood after 5 minutes
# Protocol: as §1, §2
structure (smiles),measurement,setting,value
C[C@H](N)C(=O)NCC(=O)N[C@H]1CSSC[C@@H](C(=O)O)NC(=O)[C@H](CO)NC(=O)[C@H]([C@@H](C)O)NC(=O)[C@H](Cc2ccccc2)NC(=O)[C@H]([C@@H](C)O)NC(=O)[C@H](CCCCN)NC(=O)[C@H](Cc2c[nH]c3ccccc23)NC(=O)[C@H](Cc2ccccc2)NC(=O)[C@H](Cc2ccccc2)NC(=O)[C@H](CC(N)=O)NC(=O)[C@H](CCCCN)NC1=O [Somatostatin],Glucagon Inhibition,portal vein glucagon,1
same,Insulin Release Inhibition,portal vein insulin,1
